# Measurements: ChEMBL document CHEMBL1201862, “PubChem BioAssay data set” (2004)
# Active and inactive are the calls of the source.
# How the values were obtained:
# INS1 = assay: INS-1E survival protection against cytokine death – cell-based, luminescence, retest, dose response (AID 449756); assay type: functional; conditions: Rattus norvegicus;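 also: cell death triggered by IL-1 beta plus TNF-alpha plus IFN-gamma mixture; protective hits raise ATP signal compared with cytokine alone wells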
# [1] = reduction of Shn3 3'UTR-driven luciferase in osteoblasts – cell-based, Clone20 osteoblasts, firefly luciferase, cherry-picked, dose response (AID 624132); assay type: functional;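 also: firefly luciferase luminescence from reporter carrying the Shn3 3'UTR in osteoblasts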
# [2] = loss of viability in HepG2 cells – cell-based, CellTiter-Glo, cherry-picked, cytotoxicity control for Shn3 inhibitor project, dose response (AID 624134); assay type: functional
# [3] = non-specific 3'UTR reporter inhibition in Clone20-Shn3RL – cell-based, Renilla luciferase, cherry-picked, counter-screen for Shn3 inhibitor project, dose response (AID 624133); assay type: functional
# [4] = Shn3 3'UTR reporter signal decrease – cell-based, Clone20 osteoblasts, firefly luciferase, cherry-pick, set 2, Schnurri-3 inhibitor project, dose response (AID 720490); assay type: functional;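 also: actives lower the luminescence signal as inhibitors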
# [5] = reduced cellular PGC1a acetyl-lysine signal – cell-based, cherry-picked samples, dose response (AID 720514); assay type: functional;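 also: potency may reflect raised or lowered acetylation signal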
# H9c2 = assay: cells; assay type: functional, cell-based; conditions: Rattus norvegicus, H9c2, Myocardium;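 also: confirmatory concentration-response retest of ultra-high-throughput screening hits for modulation of myocardial damage; cell death induced by hydrogen peroxide oxidative stress; compound pretreatment for 60 min then peroxide exposure for 2 h; potency is for protecting the cells against peroxide damage rather than for killing them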
# HeLa = assay: viability loss in HeLa cells – cell-based, ATP luminescence, cherry-pick samples, cytotoxicity control, dose response (AID 687004); assay type: functional; conditions: Homo sapiens
# fMet-Leu-Phe receptor = fMet-Leu-Phe receptor (Homo sapiens, UniProt P21462); assay: formyl peptide receptor binders – dose response (AID 519); assay type: functional
# [6] = target: T1, Ubiquitin-conjugating enzyme E2 N (Homo sapiens, UniProt P61088); assay type: functional;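 also: Dose-response confirmation in a TR-FRET assay detecting UBC13-driven polyubiquitin chain formation, inhibition measured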
# T1 sequence (P61088 whole entry): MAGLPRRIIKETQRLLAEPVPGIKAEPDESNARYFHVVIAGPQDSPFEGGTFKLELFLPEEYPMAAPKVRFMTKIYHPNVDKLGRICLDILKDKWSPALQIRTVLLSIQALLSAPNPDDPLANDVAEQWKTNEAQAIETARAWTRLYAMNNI
# [7] = target: Delta-type opioid receptor (Homo sapiens, UniProt P41143); assay: Counterscreen for agonists of heterodimerization of the mu 1 (OPRM1) and delta 1 (OPRD1) opioid receptors: Luminescence-based cell-based high throughput dose response assay to identify agonists of OPRD1 homodimerization. [Related pubchem assays (depositor defined):AID504326, AID504355, AID504692, AID504904, AID504905]; assay type: functional
# Mu-type opioid receptor = Mu-type opioid receptor (Homo sapiens, UniProt P35372); assay: Counterscreen for agonists of heterodimerization of the mu 1 (OPRM1) and delta 1 (OPRD1) opioid receptors: Luminescence-based cell-based high throughput dose response assay to identify agonists of OPRM1 homodimerization.; assay type: functional;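 also: U2OS cells expressing OPRM1 and beta-arrestin as split beta-galactosidase partners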
# [8] = target: 5-hydroxytryptamine receptor 5A (Homo sapiens, UniProt P47898); assay: Counterscreen for agonists of OPRM1-OPRD1 heterodimerization: luminescence-based cell-based high throughput dose response assay to identify agonists of 5-hydroxytryptamine (serotonin) 5A receptor (HTR5A). [Related pubchem assays (depositor defined):AID504326, AID504355, AID504692, AID504904, AID504905]; assay type: functional
# Paired box protein Pax-8 = Paired box protein Pax-8 (Homo sapiens, UniProt Q06710); assay: PAX8 transcriptional activity inhibition in RMG-I – RMG-I cells, luciferase, cherry-pick, dose response (AID 687027); assay type: functional, cell-based;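 also: luciferase reporter driven by Pax8 target thyroperoxidase promoter measured by SteadyGlo luminescence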
# [9] = general cell-killing toxicity readout – plate reader, dry powder samples, cytotoxicity control for PAX8 inhibitor project, dose response (AID 743021); assay type: functional, cell-based
# [10] = target: NAD-dependent protein deacylase sirtuin-5, mitochondrial (Homo sapiens, UniProt Q9NXA8); assay: sirtuin-5 deacylation blockers, concentration series – biochemical, fluorescence imaging, cherry-pick, set 5, dose response (AID 720591);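 also: desuccinylation of succinyl peptide AMC substrate read as fluorescence after trypsin release; potency of inhibitors that lower fluorescence and may act on trypsin instead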
# Sequence of NAD-dependent protein deacylase sirtuin-5, mitochondrial (Q9NXA8 whole entry): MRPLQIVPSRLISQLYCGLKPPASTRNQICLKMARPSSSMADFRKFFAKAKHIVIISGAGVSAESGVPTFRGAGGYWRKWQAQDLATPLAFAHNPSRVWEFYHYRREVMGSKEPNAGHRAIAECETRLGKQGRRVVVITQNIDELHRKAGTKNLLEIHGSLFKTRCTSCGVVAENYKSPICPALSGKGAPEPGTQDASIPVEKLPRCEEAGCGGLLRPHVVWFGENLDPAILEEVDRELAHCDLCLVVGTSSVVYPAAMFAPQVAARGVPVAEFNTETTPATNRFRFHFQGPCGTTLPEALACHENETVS
# Sequence of fMet-Leu-Phe receptor (P21462 whole entry): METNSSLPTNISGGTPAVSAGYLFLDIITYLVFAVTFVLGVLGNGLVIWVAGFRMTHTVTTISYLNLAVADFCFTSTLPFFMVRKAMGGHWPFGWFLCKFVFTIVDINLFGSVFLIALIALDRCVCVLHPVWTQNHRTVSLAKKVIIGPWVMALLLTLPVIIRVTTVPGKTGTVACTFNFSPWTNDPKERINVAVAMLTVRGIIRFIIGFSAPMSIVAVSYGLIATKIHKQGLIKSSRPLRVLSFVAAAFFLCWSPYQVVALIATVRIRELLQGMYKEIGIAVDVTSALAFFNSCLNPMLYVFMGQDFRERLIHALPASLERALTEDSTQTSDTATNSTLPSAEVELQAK
# Sequence of 5-hydroxytryptamine receptor 5A (P47898 whole entry): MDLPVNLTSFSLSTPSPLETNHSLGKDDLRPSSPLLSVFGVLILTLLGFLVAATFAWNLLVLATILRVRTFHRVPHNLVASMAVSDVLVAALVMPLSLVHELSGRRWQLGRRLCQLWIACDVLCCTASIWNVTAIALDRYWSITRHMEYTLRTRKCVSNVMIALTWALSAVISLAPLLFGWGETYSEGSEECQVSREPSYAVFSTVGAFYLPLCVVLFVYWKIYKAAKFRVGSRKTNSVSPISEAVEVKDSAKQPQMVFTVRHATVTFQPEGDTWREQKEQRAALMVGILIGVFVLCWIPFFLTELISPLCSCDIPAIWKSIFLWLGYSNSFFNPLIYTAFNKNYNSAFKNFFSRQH
# Sequence of Paired box protein Pax-8 (Q06710 whole entry): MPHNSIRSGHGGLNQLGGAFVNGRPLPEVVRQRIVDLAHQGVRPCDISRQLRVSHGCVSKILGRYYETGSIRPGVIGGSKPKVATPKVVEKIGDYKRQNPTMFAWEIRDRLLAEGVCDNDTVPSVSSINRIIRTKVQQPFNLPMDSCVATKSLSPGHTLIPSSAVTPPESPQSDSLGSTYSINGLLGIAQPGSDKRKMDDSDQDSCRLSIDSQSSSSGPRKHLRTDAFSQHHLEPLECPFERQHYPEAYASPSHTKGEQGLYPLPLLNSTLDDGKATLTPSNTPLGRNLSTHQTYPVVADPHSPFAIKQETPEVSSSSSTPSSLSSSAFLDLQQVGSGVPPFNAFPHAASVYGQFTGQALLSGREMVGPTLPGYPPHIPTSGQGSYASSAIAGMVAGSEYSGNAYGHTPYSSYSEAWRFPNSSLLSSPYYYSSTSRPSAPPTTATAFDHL
# Sequence of Mu-type opioid receptor (P35372 whole entry): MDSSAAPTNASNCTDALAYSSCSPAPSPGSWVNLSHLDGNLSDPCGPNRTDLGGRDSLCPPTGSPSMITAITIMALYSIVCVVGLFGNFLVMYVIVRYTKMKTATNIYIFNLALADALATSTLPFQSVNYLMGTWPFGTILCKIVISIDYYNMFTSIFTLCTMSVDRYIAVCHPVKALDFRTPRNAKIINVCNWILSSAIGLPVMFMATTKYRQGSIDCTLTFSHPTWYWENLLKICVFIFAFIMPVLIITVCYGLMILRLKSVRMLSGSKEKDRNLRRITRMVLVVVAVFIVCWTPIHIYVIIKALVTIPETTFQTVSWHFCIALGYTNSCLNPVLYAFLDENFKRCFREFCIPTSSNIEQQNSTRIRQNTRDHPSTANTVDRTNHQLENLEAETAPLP
# Sequence of Delta-type opioid receptor (P41143 whole entry): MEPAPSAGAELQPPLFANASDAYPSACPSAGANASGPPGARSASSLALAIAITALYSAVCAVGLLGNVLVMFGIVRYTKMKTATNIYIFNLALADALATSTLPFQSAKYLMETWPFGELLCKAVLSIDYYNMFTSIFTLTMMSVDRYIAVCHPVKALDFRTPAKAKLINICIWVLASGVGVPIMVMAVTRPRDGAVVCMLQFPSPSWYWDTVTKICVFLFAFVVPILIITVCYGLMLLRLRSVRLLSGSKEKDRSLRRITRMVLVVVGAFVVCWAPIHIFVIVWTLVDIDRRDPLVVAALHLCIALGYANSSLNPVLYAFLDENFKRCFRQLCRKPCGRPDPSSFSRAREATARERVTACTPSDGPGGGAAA
compound,measurement,setting,value
Cc1ccc(NC(=O)c2cc(S(=O)(=O)NCCC3=CCCCC3)ccc2F)cc1F,AC50,INS1,3.03 µM (active)
same,AC50,[1],4.13 µM (active)
same,AC50,[2],41.5 µM (active)
same,AC50,[3],46.1 µM (active)
same,AC50,[4],3.83 µM (active)
O=C(Nc1cc(S(=O)(=O)N2CCOCC2)ccc1Cl)c1cc([N+](=O)[O-])ccc1Cl,AC50,[5],13 µM (active)
CS(=O)(=O)c1ccc(-c2cnc3c(NC=O)cc(-c4ccsc4)cn23)cc1,IC50,H9c2,4.99 µM (active)
same,AC50,HeLa,> 52 µM (inactive)
CC1(C)S[C@@H]2[C@H](NC(=O)Cc3ccccc3)C(=O)N2[C@H]1C(=O)O [PENICILLIN G POTASSIUM],Ki,fMet-Leu-Phe receptor,7.8 µM (active)
CCN1CCN(Cc2ccc(NC(=O)c3ccc(C)c(NC(=O)c4cnc5cc(C(F)(F)F)ccc5c4O)c3)cc2C(F)(F)F)CC1,IC50,[6],> 20 µM (inactive)
same,EC50,[7],11.2 µM (inactive)
same,EC50,Mu-type opioid receptor,> 92.5 µM (inactive)
same,EC50,[8],> 92.5 µM (inactive)
same,AC50,INS1,4.42 µM (active)
same,AC50,Paired box protein Pax-8,10.6 µM (active)
same,AC50,[9],26.2 µM (active)
O=C(Cc1cccc(NC(=O)C2CCCN(C(=O)C3CCCC3)C2)c1)Nc1cccc(C(=O)N2CCOCC2)c1 (configuration not stated),AC50,[10],> 30 µM (inactive)
